# pIC50: −log10 of the molar value. Active and inactive are the calls of the source. The calls are words filed in the database; no cut-off is given here.
# Tests used:
# HeLa [1] = experiment: Antiproliferative activity against human HeLa cells after 48 hrs by MTT assay; assay type: functional, cell-based
# A549 = experiment: Antiproliferative activity against human A549 cells after 48 hrs by MTT assay; assay type: functional, cell-based; details: A549, 48 h
# MCF7 = experiment: Antiproliferative activity against human MCF7 cells after 48 hrs by MTT assay; assay type: functional, cell-based; details: MCF7, 48 h
# Calf thymus DNA [2] = experiment: Binding affinity to calf thymus DNA assessed as DNA intercalation by measuring increase in viscosity at 15 uM by Ostwald viscometric method; assay type: nucleic-acid assay; details: Bos taurus
# Calf thymus DNA [3] = experiment: Binding affinity to calf thymus DNA assessed as hypochromicity shift in positive band at DNA to compound ratio of 1:1 by CD spectral analysis; assay type: nucleic-acid assay; details: Bos taurus
# HEK293 = experiment: Antiproliferative activity against HEK293 cells after 48 hrs by MTT assay; assay type: cell-based; details: Homo sapiens, HEK293, 48 h
# HeLa [4] = experiment: Cell cycle arrest in human HeLa cells assessed as accumulation at S phase at 5 uM after 48 hrs by propidium iodide staining based FACS analysis (reference value: 5.58%); assay type: functional
# HeLa [5] = experiment: Cell cycle arrest in human HeLa cells assessed as accumulation at sub-G1 phase at 2.5 uM after 48 hrs by propidium iodide staining based FACS analysis (reference value: 1.69%); assay type: functional
# [6] = biological target: T1, DNA topoisomerase 1 (Homo sapiens) (UniProt P11387); experiment: Inhibition of topoisomerase-1 (unknown origin) at 100 uM using pBR322 DNA as substrate after 30 mins by agarose gel electrophoresis method
# T1 sequence (whole entry): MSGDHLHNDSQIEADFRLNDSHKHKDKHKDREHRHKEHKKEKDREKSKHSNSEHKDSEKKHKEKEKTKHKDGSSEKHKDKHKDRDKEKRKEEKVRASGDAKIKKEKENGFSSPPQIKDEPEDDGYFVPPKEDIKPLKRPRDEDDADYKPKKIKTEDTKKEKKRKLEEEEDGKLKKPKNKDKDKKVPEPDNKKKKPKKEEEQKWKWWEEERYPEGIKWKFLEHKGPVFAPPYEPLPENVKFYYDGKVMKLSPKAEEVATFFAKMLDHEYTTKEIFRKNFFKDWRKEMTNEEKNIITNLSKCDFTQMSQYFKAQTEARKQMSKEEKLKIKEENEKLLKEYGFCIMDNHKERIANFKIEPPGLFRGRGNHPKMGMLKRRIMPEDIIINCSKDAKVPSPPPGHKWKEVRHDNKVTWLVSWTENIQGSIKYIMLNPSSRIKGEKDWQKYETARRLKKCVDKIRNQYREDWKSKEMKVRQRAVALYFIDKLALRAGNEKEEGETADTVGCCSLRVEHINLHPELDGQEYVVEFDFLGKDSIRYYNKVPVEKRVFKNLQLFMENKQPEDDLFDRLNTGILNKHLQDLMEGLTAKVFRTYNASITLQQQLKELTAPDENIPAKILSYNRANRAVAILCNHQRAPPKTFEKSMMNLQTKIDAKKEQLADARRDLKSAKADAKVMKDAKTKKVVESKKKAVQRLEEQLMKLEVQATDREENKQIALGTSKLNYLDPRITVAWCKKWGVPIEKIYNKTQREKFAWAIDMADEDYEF
# Calf thymus DNA [7] = experiment: Binding affinity to calf thymus DNA assessed as hypochromicity shift in negative band at DNA to compound ratio of 1:1 to 1:2 by CD spectral analysis; assay type: nucleic-acid assay; details: Bos taurus
# Calf thymus DNA [8] = experiment: Binding affinity to calf thymus DNA assessed as hypochromicity shift at 10 uM by fluorescence spectral analysis; assay type: nucleic-acid assay; details: Bos taurus
# HeLa [9] = experiment: Cell cycle arrest in human HeLa cells assessed as accumulation at S phase at 2.5 uM after 48 hrs by propidium iodide staining based FACS analysis (reference value: 5.58%); assay type: functional
# HeLa [10] = experiment: Cell cycle arrest in human HeLa cells assessed as accumulation at G1 phase at 5 uM after 48 hrs by propidium iodide staining based FACS analysis (reference value: 73.5%); assay type: functional
# HeLa [11] = experiment: Cell cycle arrest in human HeLa cells assessed as accumulation at G2/M phase at 5 uM after 48 hrs by propidium iodide staining based FACS analysis (reference value: 13.9%); assay type: functional
# HeLa [12] = experiment: Cell cycle arrest in human HeLa cells assessed as accumulation at G2/M phase at 2.5 uM after 48 hrs by propidium iodide staining based FACS analysis (reference value: 13.9%); assay type: functional
# HeLa [13] = experiment: Cell cycle arrest in human HeLa cells assessed as accumulation at G1 phase at 2.5 uM after 48 hrs by propidium iodide staining based FACS analysis (reference value: 73.5%); assay type: functional
# Calf thymus DNA [14] = experiment: Binding affinity to calf thymus DNA assessed as hypochromicity at 10 uM by UV-Visible spectrophotometric method; assay type: nucleic-acid assay; details: Bos taurus
# HeLa [15] = experiment: Cell cycle arrest in human HeLa cells assessed as accumulation at sub-G1 phase at 5 uM after 48 hrs by propidium iodide staining based FACS analysis (reference value: 1.69%); assay type: functional
# Calf thymus DNA [16] = experiment: Binding affinity to calf thymus DNA assessed as hypochromicity shift in positive band at DNA to compound ratio of 1:2 by CD spectral analysis; assay type: nucleic-acid assay; details: Bos taurus
Compound,pIC50 (HeLa [1]),pIC50 (A549),pIC50 (MCF7),also measured
Oc1ccc2ccccc2c1C(Nc1nc2ccccc2s1)c1cn(-c2ccccc2)nc1-c1ccccc1 (centres undefined),4.76,4.44,4.31,–
O=[N+]([O-])c1ccc(-c2nn(-c3ccccc3)cc2C(Nc2nc3ccc(Cl)cc3s2)c2c(O)ccc3ccccc23)cc1 (centres undefined),4.87,4.24,4.41,–
Cc1ccc2nc(NC(c3cn(-c4ccccc4)nc3-c3cccc(Cl)c3)c3c(O)ccc4ccccc34)sc2c1 (centres undefined),5.03,4.34,4.30,–
Cc1ccc2nc(NC(c3cn(-c4ccccc4)nc3-c3ccc([N+](=O)[O-])cc3)c3c(O)ccc4ccccc34)sc2c1 (centres undefined),5.15,4.54,4.68,–
Oc1ccc2ccccc2c1C(Nc1nc2ccc(Cl)cc2s1)c1cn(-c2ccccc2)nc1-c1ccc(I)cc1 (centres undefined),4.92,4.54,4.19,–
Cc1ccc(-c2nn(-c3ccccc3)cc2C(Nc2nc3ccccc3s2)c2c(O)ccc3ccccc23)cc1 (centres undefined),5.09,4.24,4.88,–
COc1ccc2nc(NC(c3cn(-c4ccccc4)nc3-c3ccc(F)cc3)c3c(O)ccc4ccccc34)sc2c1 (centres undefined),5.33,4.47,4.77,Activity (Calf thymus DNA [2]): inactive; Activity (Calf thymus DNA [3]): Active; pIC50 (HEK293): 4.24; Activity (HeLa [4]): 5.08%; Activity (HeLa [5]): 2.79%; inhibition [6]: Active; Activity (Calf thymus DNA [7]): Active; Activity (Calf thymus DNA [8]): 507 nm; Activity (HeLa [9]): 11.5%; Activity (HeLa [10]): 60%; Activity (HeLa [11]): 28.2%; Activity (HeLa [12]): 25.3%; Activity (HeLa [13]): 57.5%; Activity (Calf thymus DNA [14]): Active; Activity (HeLa [15]): 3.09%; Activity (Calf thymus DNA [16]): Active
Cc1cc2nc(NC(c3cn(-c4ccccc4)nc3-c3ccc([N+](=O)[O-])cc3)c3c(O)ccc4ccccc34)sc2cc1C (centres undefined),4.83,4.38,4.39,–
COc1ccc(-c2nn(-c3ccccc3)cc2C(Nc2nc3ccc(OC)cc3s2)c2c(O)ccc3ccccc23)cc1 (centres undefined),5.03,4.55,4.38,–
Oc1ccc2ccccc2c1C(Nc1nc2ccc(Cl)cc2s1)c1cn(-c2ccccc2)nc1-c1ccccc1 (centres undefined),4.90,4.29,4.44,–
Oc1ccc2ccccc2c1C(Nc1nc2ccccc2s1)c1cn(-c2ccccc2)nc1-c1cccc(Cl)c1 (centres undefined),5.17,4.69,4.69,–

# Second part, led by results:
pIC50 (HeLa [1]),pIC50 (A549),pIC50 (MCF7),Compound,also measured
5.08,4.35,4.39,COc1ccc2nc(NC(c3cn(-c4ccccc4)nc3-c3ccccc3)c3c(O)ccc4ccccc34)sc2c1 (centres undefined),–
5.21,4.28,4.57,COc1ccc2nc(NC(c3cn(-c4ccccc4)nc3-c3cccc([N+](=O)[O-])c3)c3c(O)ccc4ccccc34)sc2c1 (centres undefined),–
5.20,4.41,4.70,COc1ccc2nc(NC(c3cn(-c4ccccc4)nc3-c3cccc(I)c3)c3c(O)ccc4ccccc34)sc2c1 (centres undefined),–
4.98,4.06,4.20,COc1cccc(-c2nn(-c3ccccc3)cc2C(Nc2nc3ccc(OC)cc3s2)c2c(O)ccc3ccccc23)c1 (centres undefined),–
5.09,4.49,4.36,O=[N+]([O-])c1cccc(-c2nn(-c3ccccc3)cc2C(Nc2nc3ccccc3s2)c2c(O)ccc3ccccc23)c1 (centres undefined),–

# Reference: ChEMBL document CHEMBL4330150, “Synthesis and biological evaluation of pyrazole linked benzothiazole-β-naphthol derivatives as topoisomerase I inhibitors with DNA binding ability” (Bioorg Med Chem, 2019)
